Measured values published in patent US9085555B2, “Complement pathway modulators and uses thereof” (priority 2011, dated 2015).

The compounds below were run against Factor D (Homo sapiens (Human), UniProt P00746) (assay: biochemical). Settings: read-out: IC50.
Factor D, sequence (P00746 26-253): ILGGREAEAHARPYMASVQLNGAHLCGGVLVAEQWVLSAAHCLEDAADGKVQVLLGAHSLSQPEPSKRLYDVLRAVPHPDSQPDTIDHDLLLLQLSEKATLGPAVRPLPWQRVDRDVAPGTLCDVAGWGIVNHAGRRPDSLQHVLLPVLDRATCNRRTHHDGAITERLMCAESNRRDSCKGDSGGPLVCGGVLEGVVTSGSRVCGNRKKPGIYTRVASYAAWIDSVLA
Format: biochemical
`NC(=O)n1cc(NC(=O)N2C[C@H](F)C[C@H]2C(=O)NCc2ccncc2F)c2ccccc21` [Example 230, (2S,4R)-4-Fluoro-pyrrolidine-1,2-dicarboxylic acid 1-[(1-carbamoyl-1H-indol-3-yl)-amide] 2-[(3-fluoro-pyridin-4-ylmethyl)-amide]] was tested, and the IC50 was 2550 nM. Compound `COC[C@@H](NC(=O)[C@@H]1[C@@H]2C[C@@H]2CN1C(=O)Nc1cn(C(N)=O)c2ccccc12)c1cccc(Cl)c1F` [Example 231, (1R,2S,5S)-3-Aza-bicyclo[3.1.0]hexane-2,3-dicarboxylic acid 3-[(1-carbamoyl-1H-indol-3-yl)-amide] 2-{[(S)-1-(3-chloro-2-fluoro-phenyl)-2-methoxy-ethyl]-amide}] has an IC50 of 103 nM. `NC(=O)n1cc(NC(=O)N2C[C@H](F)C[C@H]2C(=O)NCc2ccnc(C(F)(F)F)c2F)c2ccccc21` [Example 232, (2S,4R)-4-Fluoro-pyrrolidine-1,2-dicarboxylic acid 1-[(1-carbamoyl-1H-indol-3-yl)-amide] 2-[(3-fluoro-2-trifluoromethyl-pyridin-4-ylmethyl)-amide]] showed an IC50 of 989 nM. `NC(=O)n1cc(NC(=O)N2CCC[C@H]2C(=O)Nc2cccc(S(N)(=O)=O)c2)c2ccccc21` [Example 233, (S)-Pyrrolidine-1,2-dicarboxylic acid 1-[(1-carbamoyl-1H-indol-3-yl)-amide] 2-[(3-sulfamoyl-phenyl)-amide]] was tested, and the IC50 was 850 nM. `COc1cc(F)c(F)c(CNC(=O)[C@@H]2SCCN2C(=O)Nc2cn(C(N)=O)c3ccccc23)c1` [Example 235, (S)-Thiazolidine-2,3-dicarboxylic acid 3-[(1-carbamoyl-1H-indol-3-yl)-amide] 2-(2,3-difluoro-5-methoxy-benzylamide)] gave an IC50 of 80 nM. Compound `COC[C@@H](NC(=O)[C@@H]1C[C@H]2C[C@H]2N1C(=O)Nc1cn(C(N)=O)c2ccccc12)c1cccc(Cl)c1F` [Example 236, (1R,3S,5R)-2-Aza-bicyclo[3.1.0]hexane-2,3-dicarboxylic acid 2-[(1-carbamoyl-1H-indol-3-yl)-amide] 3-{[(S)-1-(3-chloro-2-fluoro-phenyl)-2-methoxy-ethyl]-amide}] has an IC50 of 8 nM. `NC(=O)n1cc(NC(=O)N2C[C@H](F)C[C@H]2C(=O)NCc2cncc(Cl)c2)c2ccccc21` [Example 237, (2S,4R)-4-Fluoro-pyrrolidine-1,2-dicarboxylic acid 1-[(1-carbamoyl-1H-indol-3-yl)-amide] 2-[(5-chloro-pyridin-3-ylmethyl)-amide]] gave an IC50 of 70 nM. `CCc1cccc(NC(=O)[C@@H]2CCCN2C(=O)Nc2cn(C(N)=O)c3ccccc23)n1` [Example 238, (S)-Pyrrolidine-1,2-dicarboxylic acid 1-[(1-carbamoyl-1H-indol-3-yl)-amide] 2-[(6-ethyl-pyridin-2-yl)-amide]] showed an IC50 of 650 nM. `C[C@@]1(F)C[C@@H](C(=O)N[C@H](CO)c2cccc(Cl)c2F)N(C(=O)Nc2cn(C(N)=O)c3ccccc23)C1` [Example 239, (2S,4R)-4-Fluoro-4-methyl-pyrrolidine-1,2-dicarboxylic acid 1-[(1-carbamoyl-1H-indol-3-yl)-amide] 2-{[(S)-1-(3-chloro-2-fluoro-phenyl)-2-hydroxy-ethyl]-amide}] showed an IC50 of 52 nM. Work on `CNC(=O)c1cc(Cl)c(F)c(CNC(=O)[C@@H]2C[C@@H](F)CN2C(=O)Nc2cn(C(N)=O)c3ccccc23)c1` [Example 240, (2S,4R)-4-Fluoro-pyrrolidine-1,2-dicarboxylic acid 1-[(1-carbamoyl-1H-indol-3-yl)-amide] 2-(3-chloro-2-fluoro-5-methylcarbamoyl-benzylamide)] yielded an IC50 of 141 nM. `NC(=O)n1cc(NC(=O)N2C[C@](F)(CF)C[C@H]2C(=O)NCc2cccc(Cl)c2F)c2ccccc21` [Example 241, (2S,4S)-4-Fluoro-4-fluoromethyl-pyrrolidine-1,2-dicarboxylic acid 1-[(1-carbamoyl-1H-indol-3-yl)-amide] 2-(3-chloro-2-fluoro-benzylamide)] showed an IC50 of 250 nM. `NC(=O)n1cc(NC(=O)N2C3CC3C[C@H]2C(=O)NCc2ncccc2F)c2ccccc21` (some centres unmarked) [Example 242] showed an IC50 of 200 nM. `NC(=O)n1cc(NC(=O)N2C[C@@](F)(CN3CCOCC3)C[C@H]2C(=O)NCc2cccc(Cl)c2F)c2ccccc21` [Example 243, (2S,4S)-4-Fluoro-4-morpholin-4-ylmethyl-pyrrolidine-1,2-dicarboxylic acid 1-[(1-carbamoyl-1H-indol-3-yl)-amide] 2-(3-chloro-2-fluoro-benzylamide)] showed an IC50 of 200 nM. `COC(=O)c1cc(Cl)c(F)c(CNC(=O)[C@@H]2C[C@@H](F)CN2C(=O)Nc2cn(C(N)=O)c3ccccc23)c1` [Example 244, 3-({[(2S,4R)-1-(1-Carbamoyl-1H-indol-3-ylcarbamoyl)-4-fluoro-pyrrolidine-2-carbonyl]-amino}-methyl)-5-chloro-4-fluoro-benzoic acid methyl ester] showed an IC50 of 17 nM. `COC[C@@H](NC(=O)[C@@H]1[C@H]2C[C@H]2CN1C(=O)Nc1cn(C(N)=O)c2ccccc12)c1cccc(Cl)c1F` [Example 245, (1S,2S,5R)-3-Aza-bicyclo[3.1.0]hexane-2,3-dicarboxylic acid 3-[(1-carbamoyl-1H-indol-3-yl)-amide] 2-{[(S)-1-(3-chloro-2-fluoro-phenyl)-2-methoxy-ethyl]-amide}] showed an IC50 of 1050 nM. For `NC(=O)n1cc(NC(=O)N2C[C@H](F)C[C@H]2C(=O)NC(C(=O)O)c2cccc(Cl)c2)c2ccccc21` (stereo partly drawn) [Example 246, {[(2S,4R)-1-(1-Carbamoyl-1H-indol-3-ylcarbamoyl)-4-fluoro-pyrrolidine-2-carbonyl]-amino}-(3-chloro-phenyl)-acetic acid], the IC50 was 2000 nM. With `NC(=O)n1cc(NC(=O)N2[C@@H]3C[C@@H]3C[C@H]2C(=O)Nc2cncc(Cl)c2)c2ccccc21` [Example 247, (1R,3S,5R)-2-Aza-bicyclo[3.1.0]hexane-2,3-dicarboxylic acid 2-[(1-carbamoyl-1H-indol-3-yl)-amide] 3-[(5-chloro-pyridin-3-yl)-amide]] the IC50 was 400 nM. `CN(C)C[C@@H](NC(=O)[C@@H]1C[C@@H](F)CN1C(=O)Nc1cn(C(N)=O)c2ccccc12)c1cccc(Cl)c1F` [Example 248, (2S,4R)-4-Fluoro-pyrrolidine-1,2-dicarboxylic acid 1-[(1-carbamoyl-1H-indol-3-yl)-amide] 2-{[(S)-1-(3-chloro-2-fluoro-phenyl)-2-dimethylamino-ethyl]-amide}] was tested, and the IC50 was 119 nM. For `NC(=O)n1cc(NC(=O)N2C[C@H](F)C[C@H]2C(=O)NCc2cc(C(=O)N3CCOCC3)cc(Cl)c2F)c2ccccc21` [Example 250, (2S,4R)-4-Fluoro-pyrrolidine-1,2-dicarboxylic acid 1-[(1-carbamoyl-1H-indol-3-yl)-amide] 2-[3-chloro-2-fluoro-5-(morpholine-4-carbonyl)-benzylamide]], the IC50 was 549 nM. With `CCN(CC)c1cc(Cl)c(F)c(CNC(=O)[C@@H]2C[C@@H](F)CN2C(=O)Nc2cn(C(N)=O)c3ccccc23)c1` [Example 252, (2S,4R)-4-Fluoro-pyrrolidine-1,2-dicarboxylic acid 1-[(1-carbamoyl-1H-indol-3-yl)-amide] 2-(3-chloro-5-diethylamino-2-fluoro-benzylamide)] the IC50 was 114 nM. Compound `NC(=O)n1cc(NC(=O)N2CCS[C@H]2C(=O)N[C@H](CO)c2cccc(Cl)c2F)c2ccccc21` [Example 253, (S)-Thiazolidine-2,3-dicarboxylic acid 3-[(1-carbamoyl-1H-indol-3-yl)-amide] 2-{[(S)-1-(3-chloro-2-fluoro-phenyl)-2-hydroxy-ethyl]-amide}] has an IC50 of 1070 nM. In the case of `COC1CN(C(=O)c2cc(Cl)c(F)c(CNC(=O)[C@@H]3C[C@@H](F)CN3C(=O)Nc3cn(C(N)=O)c4ccccc34)c2)C1` [Example 255, (2S,4R)-4-Fluoro-pyrrolidine-1,2-dicarboxylic acid 1-[(1-carbamoyl-1H-indol-3-yl)-amide] 2-[3-chloro-2-fluoro-5-(3-methoxy-azetidine-1-carbonyl)-benzylamide]], the IC50 is reported as 434 nM. `N#C[C@@H]1C[C@@H](C(=O)Nc2cccc(OC(F)(F)F)c2)N(C(=O)Nc2cn(C(N)=O)c3ccccc23)C1` [Example 256, (2S,4R)-4-cyano-pyrrolidine-1,2-dicarboxylic acid 1-[(1-carbamoyl-1H-indol-3-yl)-amide]2-[(3-trifluoromethoxy-phenyl)-amide]] gave an IC50 of 4000 nM. In the case of `NC(=O)n1cc(NC(=O)N2CC[C@H](O)[C@H]2C(=O)NCc2cccc(Cl)c2)c2ccccc21` [Example 257, (2S,3S)-3-Hydroxy-pyrrolidine-1,2-dicarboxylic acid 1-[(1-carbamoyl-1H-indol-3-yl)-amide] 2-(3-chloro-benzylamide)], the IC50 is reported as 3950 nM. Compound `NC(=O)n1cc(NC(=O)N2[C@@H]3C[C@@H]3C[C@H]2C(=O)NCc2ccccc2)c2ccccc21` [Example 258, (1R,3S,5R)-2-Aza-bicyclo[3.1.0]hexane-2,3-dicarboxylic acid 3-benzylamide 2-[(1-carbamoyl-1H-indol-3-yl)-amide]] has an IC50 of 78 nM. `CC(=O)n1cc(NC(=O)N2C[C@@H](CO)C[C@H]2C(=O)NCc2cccc(Cl)c2F)c2ccccc21` [Example 260, (2S,4S)-4-Hydroxymethyl-pyrrolidine-1,2-dicarboxylic acid 1-[(1-acetyl-1H-indol-3-yl)-amide] 2-(3-chloro-2-fluoro-benzylamide)] was tested, and the IC50 was 200 nM. For `NC(=O)n1cc(NC(=O)N2C3CC3C[C@H]2C(=O)NCc2cccc(C(F)(F)F)c2F)c2ccccc21` (stereo partly drawn) [Example 261, (1R,3S,5R)-2-Aza-bicyclo[3.1.0]hexane-2,3-dicarboxylic acid 2-[(1-carbamoyl-1H-indol-3-yl)-amide] 3-(2-fluoro-3-trifluoromethyl-benzylamide)], the IC50 was 75 nM. Compound `COc1ccc(F)c(F)c1CNC(=O)[C@@H]1SCCN1C(=O)Nc1cn(C(N)=O)c2ccccc12` [Example 262, (S)-Thiazolidine-2,3-dicarboxylic acid 3-[(1-carbamoyl-1H-indol-3-yl)-amide] 2-(2,3-difluoro-6-methoxy-benzylamide)] has an IC50 of 200 nM. Compound `NC(=O)n1cc(NC(=O)N2CCS[C@H]2C(=O)NCc2cnc(Cl)s2)c2ccccc21` [Example 263, (S)-Thiazolidine-2,3-dicarboxylic acid 3-[(1-carbamoyl-1H-indol-3-yl)-amide] 2-[(2-chloro-thiazol-5-ylmethyl)-amide]] has an IC50 of 400 nM.
